Test results reported in patent US4536493A, “Saturated aminocyclitol derivatives, their preparation and medicaments containing these compounds” (Baker Aktiengesellschaft, priority 1981, dated 1985).

Each molecule was assayed against T1, saccharase from pig small intestinal mucosa (Sus scrofa, UniProt P56729) (assay: Saccharase inhibition test in vitro). Conditions: solubilised saccharase 0.12 SU, sucrose substrate, 0.1 M sodium maleate buffer pH 6.0, 35° C.; 1 SIU = amount inhibiting two saccharase units by 50%.
T1 construct: sucrase and isomaltase chains cleaved from one SI precursor
Assay type: biochemical
Experimental: A saccharase inhibitor unit (SIU) is defined as the amount of inhibitor which inhibits two saccharase units to the extent of 50%. A saccharase unit (SU) is the amount of enzyme which cleaves 1 μmol of sucrose into glucose and fructose in one minute under the test conditions given below. […] To perform the tests, 0.05 ml of a solution of saccharase^(1) which had been set at 0.12 SU was mixed with 0 to 20 μg of inhibitor or 0 to 20 μl of the solution for testing and made up with 0.1 M sodium maleate buffer of pH 6.0 or 0.1 ml. The mixture was equilibrated for 10 minutes at 35° C. and then mixed with 0.1 ml of a 0.05 M solution of sucrose in 0.1 M sodium maleate buffer of pH 6.0 pre-warmed to 35° C. After incubation for 20 minutes at 35° C., the saccharase reaction was stopped by addition of 1 ml of glucose oxidase reagent^(2), and incubation was continued for 30 minutes at 35° C. Thereafter 1 ml of 50% strength H2 SO4 was added and measured at 545 nm against an appropriate blank. For evaluation, the percentage inhibition of the saccharase employed is calculated and, with the aid of a glucose calibration curve, converted from the 50% inhibition point to SIU/g or SIU/liter. (1) Solubilised saccharase from pig small intestinal mucosa according to B. Borgstrom, A. Dahlquist, Acta Chem. Scand. 12, (1958), page 1997. Diluted with 0.1 M sodium maleate buffer of pH 6.0 to the appropriate SU content. (2) The glucose oxidase reagent is prepared by dissolving 2 mg of glucose oxidase (Boehringer No. 15423) in 100 ml of 0.565 M tris-HCl buffer of pH 7.0 and subsequently adding 1 ml of detergent solution (2 g of Triton X 100+8 g of 95% strength ethanol AR), 1 ml of dianisidine solution (260 mg of o-dianisidine 0.2 HCl in 20 ml of H2 O) and 0.5 ml of 0.1% strength aqueous peroxidase solution (Boehringer No. 15302).

T1 sequence (P56729 with tags, fused parts or gaps): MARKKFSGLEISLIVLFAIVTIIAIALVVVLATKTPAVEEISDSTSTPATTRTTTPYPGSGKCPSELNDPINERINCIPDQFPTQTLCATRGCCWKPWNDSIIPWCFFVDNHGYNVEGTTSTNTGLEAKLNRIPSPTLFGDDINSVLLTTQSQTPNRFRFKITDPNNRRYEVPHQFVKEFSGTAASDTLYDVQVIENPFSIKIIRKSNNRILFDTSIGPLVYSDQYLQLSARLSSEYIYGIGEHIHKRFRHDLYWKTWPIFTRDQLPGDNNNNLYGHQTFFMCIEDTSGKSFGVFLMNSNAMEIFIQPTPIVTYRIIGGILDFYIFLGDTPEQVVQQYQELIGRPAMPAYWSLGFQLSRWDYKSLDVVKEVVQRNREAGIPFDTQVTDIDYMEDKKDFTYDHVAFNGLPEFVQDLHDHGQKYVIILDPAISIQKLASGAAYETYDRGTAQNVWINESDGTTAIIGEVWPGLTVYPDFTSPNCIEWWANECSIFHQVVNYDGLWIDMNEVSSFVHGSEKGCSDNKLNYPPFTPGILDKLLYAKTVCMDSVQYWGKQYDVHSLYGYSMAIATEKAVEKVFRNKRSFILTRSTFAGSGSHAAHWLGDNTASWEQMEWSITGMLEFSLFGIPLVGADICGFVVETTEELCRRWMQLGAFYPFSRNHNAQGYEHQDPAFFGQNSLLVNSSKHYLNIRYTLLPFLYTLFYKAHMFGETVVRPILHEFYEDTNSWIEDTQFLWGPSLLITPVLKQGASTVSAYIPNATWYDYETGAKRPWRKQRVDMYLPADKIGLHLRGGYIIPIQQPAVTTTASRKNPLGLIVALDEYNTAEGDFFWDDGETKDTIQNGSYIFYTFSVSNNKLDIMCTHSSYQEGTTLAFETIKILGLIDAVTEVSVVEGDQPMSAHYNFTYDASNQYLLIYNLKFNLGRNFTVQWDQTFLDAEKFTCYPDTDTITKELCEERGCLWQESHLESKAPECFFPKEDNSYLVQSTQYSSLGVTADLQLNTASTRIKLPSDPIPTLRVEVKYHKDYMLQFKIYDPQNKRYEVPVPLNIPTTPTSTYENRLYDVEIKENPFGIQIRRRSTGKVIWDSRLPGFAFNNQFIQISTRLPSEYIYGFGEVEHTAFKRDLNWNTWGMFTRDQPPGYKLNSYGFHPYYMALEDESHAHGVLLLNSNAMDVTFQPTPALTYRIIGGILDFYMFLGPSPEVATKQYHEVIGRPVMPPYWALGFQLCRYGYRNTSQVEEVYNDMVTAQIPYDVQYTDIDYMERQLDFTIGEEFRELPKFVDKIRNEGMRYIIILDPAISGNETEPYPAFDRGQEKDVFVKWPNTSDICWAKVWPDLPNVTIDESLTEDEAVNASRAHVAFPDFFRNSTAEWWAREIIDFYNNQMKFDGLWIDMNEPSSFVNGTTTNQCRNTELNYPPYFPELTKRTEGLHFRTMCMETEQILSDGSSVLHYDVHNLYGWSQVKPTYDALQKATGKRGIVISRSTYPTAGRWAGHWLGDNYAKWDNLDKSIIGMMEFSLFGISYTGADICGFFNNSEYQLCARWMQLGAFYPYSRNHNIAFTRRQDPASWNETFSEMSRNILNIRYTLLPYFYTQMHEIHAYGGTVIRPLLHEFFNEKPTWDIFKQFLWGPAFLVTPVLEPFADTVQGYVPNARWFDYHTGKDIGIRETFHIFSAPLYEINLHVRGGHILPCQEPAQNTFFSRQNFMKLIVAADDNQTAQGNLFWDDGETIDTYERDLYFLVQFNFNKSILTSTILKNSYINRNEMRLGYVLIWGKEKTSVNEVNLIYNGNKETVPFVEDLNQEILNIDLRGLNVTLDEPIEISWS

SMILES	Effectiveness in the saccharase inhibition test in vitro (saccharase inhibitor units per g)
COC1O[C@H](C)[C@@H](N[C@H]2C=C(CO)[C@@H](O)[C@H](O)[C@H]2O)[C@H](O)[C@H]1O (stereo partly shown)	38 850 SIU/g
C[C@H]1O[C@H](O[C@H]2[C@H](O)[C@@H](O)[C@@H](O[C@H]3[C@H](O)[C@@H](O)C(O)O[C@@H]3CO)O[C@@H]2CO)[C@H](O)[C@@H](O)[C@@H]1N[C@H]1C[C@H](CO)[C@@H](O)[C@H](O)[C@H]1O (stereo partly shown) [Example 1]	59 829 SIU/g
COC1O[C@H](C)[C@@H](N[C@H]2C[C@H](CO)[C@@H](O)[C@H](O)[C@H]2O)[C@H](O)[C@H]1O (stereo partly shown) [Example 2]	38 850 SIU/g
C[C@H]1O[C@H](O[C@H]2[C@H](O)[C@@H](O)[C@@H](O[C@H]3[C@H](O)[C@@H](O)C(O)O[C@@H]3CO)O[C@@H]2CO)[C@H](O)[C@@H](O)[C@@H]1N[C@H]1C=C(CO)[C@@H](O)[C@H](O)[C@H]1O (stereo partly shown) [acarbose]	77 700 SIU/g
